Columns and labels:
LOX IMVI = assay: Cytotoxicity against human LOX IMVI cells after 2 days; format: functional, cell-based; settings: 48 h
SF-539 = assay: Cytotoxicity against human SF539 cells after 2 days; format: functional, cell-based; settings: SF-539, 48 h

C=C/C(C)=C/C[C@]1(C)[C@H](C)C[C@H](OC(=O)c2ccc(O)cc2)[C@@]23C(=C[C@H](O)C[C@@H]12)[C@@H](OC(C)=O)O[C@H]3OC(C)=O [CASEARBORIN C]
IC50 (LOX IMVI): 290 nM
IC50 (SF-539): 290 nM

C=C/C(C)=C/C[C@]1(C)[C@H](C)C[C@H](O)[C@@]23C(=C[C@H](OC(=O)c4ccc(O)cc4)C[C@@H]12)[C@@H](OC(C)=O)O[C@H]3OC(C)=O [CASEARBORIN D]
IC50 (LOX IMVI): 290 nM
IC50 (SF-539): 290 nM

C=C/C(C)=C/C[C@]1(C)[C@H](C)CC[C@@]23C(=C[C@H](OC(=O)c4ccc(O)cc4)C[C@@H]12)[C@@H](OC(C)=O)O[C@H]3OC(C)=O [CASEARBORIN A]
IC50 (LOX IMVI): 290 nM
IC50 (SF-539): 290 nM

C=C/C(C)=C/C[C@]1(C)[C@H](C)CC[C@@]23C(=C[C@H](OC(=O)c4ccc(O)c(OC)c4)C[C@@H]12)[C@@H](OC(C)=O)O[C@H]3OC(C)=O [CASEARBORIN B]
IC50 (LOX IMVI): 290 nM
IC50 (SF-539): 290 nM

C=C/C(C)=C/C[C@]1(C)[C@H](C)C[C@H](OC(=O)c2ccc(O)cc2)[C@@]23C(=C[C@H](OC(C)=O)C[C@@H]12)[C@@H](OC(C)=O)O[C@H]3OC(C)=O [CASEARBORIN E]
IC50 (LOX IMVI): 290 nM
IC50 (SF-539): 290 nM

Source: ChEMBL document CHEMBL1154579, “Novel cytotoxic diterpenes from Casearia arborea” (J Nat Prod, 2000)
